Reference: patent US20240270748A1 (Merck Patent GmbH, priority 2021, published 2024)

Experiments:
[1] = test system: YAP-TEAD interaction; assay: SK-HEP-1 reporter assay (8xTEAD responsive elements driving NanoLuc luciferase); format: cell-based
Outline: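 SK-HEP-1 cells stably carrying 8×TEAD-driven NanoLuc treated in duplicate, 10-point dose from 30 μM final, 0.3% DMSO, 24 h at 37° C. Luminescence after NanoGlo lysis/substrate addition; IC50 calculated from dose response.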

[2] = test system: SW620 Yap KO cells; assay: Viability assay in SW620 Yap KO (Yap independent) cells, CyQuant; format: cell-based; conditions: Homo sapiens, SW-620, 96 h
Outline: (§1)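 Seeded cells were dosed 24 h later in duplicate (10-point, 1:3 dilutions, top 30 μM final, 0.3% DMSO) and incubated 96 h at 37 °C. Viability was read with CyQUANT DNA dye after 1 h, fluorescence bottom read. NCI-H226 in RPMI 1640 medium; SW620 YAP/TAZ CRISPR knockout in DMEM/F-12 medium.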

[3] = test system: NCI-H226 cells; assay: Viability assay in NCI-H226 (Yap-dependent) cells, CyQuant; format: cell-based, human
Outline: as §1

[4] = Homo sapiens, SK-HEP1, SK-HEP-1 reporter assay, n.d. = value not detectable below threshold given in parentheses
[5] = Homo sapiens, NCI-H226, 96 h, class symbols
[6] = Homo sapiens, SK-HEP1, SK-HEP-1 reporter assay, class symbols
[7] = n.d. = value not detectable below threshold given in parentheses, ND = not determinable within the entire range
[8] = SK-HEP-1 reporter assay, class symbols
[9] = n.d. = value not detectable below threshold given in parentheses

Row | IC50 [3, 5] [nM] | IC50 [1, 6] [nM] | IC50 [2, 7] [nM] | SMILES | further results
1 | 1 to 100 | 10 to 100 |  | Cn1nc2c3cc(C(=O)N=[S@](C)(=O)CCCO)ccc3n(-c3ccc(C(F)(F)F)cc3)c2n1 (single isomer, unassigned) [Example C172] | IC50 [2, 9]: > 30000 nM
2 | 100 to 1000 | 10 to 100 | > 30000 | Cn1nnc2c3cc(-c4noc(=O)[nH]4)ccc3n(-c3ccc(C(F)(F)F)cc3)c21 [Example C3, 3-{2-methyl-4-[4-(trifluoromethyl)phenyl]-3H,4H-[1,2,3]triazolo[4,5-b]indol-7-yl}-4,5-dihydro-1,2,4-oxadiazol-5-one] | 
3 | 1 to 100 | 10 to 100 |  | Cn1nc2c3cc(C(=O)N[C@@H](CCO)c4ccccn4)ccc3n(-c3ccc(C(F)(F)F)cc3)c2n1 (single isomer, unassigned) [Example C242] | IC50 [2, 9]: > 3000 nM
4 | 1 to 100 | 10 to 100 | > 3200 | CNC(=O)c1ccc2c(c1)c1c(C)n(C)nc1n2-c1ccc(C(F)(F)F)cc1 [Example C96, N,2,3-trimethyl-8-[4-(trifluoromethyl)phenyl]-2H,8H-pyrazolo[3,4-b]indole-5-carboxamide] | 
5 | 1 to 100 | 10 to 100 | > 30000 | CC[C@@H](CO)NC(=O)c1ccc2c(c1)c1c(C)snc1n2-c1ccc(C(F)(F)F)cc1 [Example C83, N-[(2S)-1-hydroxybutan-2-yl]-3-methyl-8-[4-(trifluoromethyl)phenyl]-8H-[1,2]thiazolo [3,4-b]indole-5-carboxamide] | 
6 | 1 to 100 | 10 to 100 |  | Cn1ccc(C(CO)NC(=O)c2ccc3c(c2)c2cn(C)nc2n3-c2ccc(C(F)(F)F)cc2)n1 (stereo not drawn) [Example C260, N-[2-hydroxy-1-(1-methyl-1H-pyrazol-3-yl)ethyl]-2-methyl-8-[4-(trifluoromethyl)phenyl]-2H,8H-pyrazolo[3,4-b]indole-5-carboxamide] | IC50 [2, 9]: > 30000 nM
7 | 1 to 100 | 10 to 100 | > 3200 | Cc1snc2c1c1cc(C(=O)NCc3ccncn3)ccc1n2-c1ccc(C(F)(F)F)cc1 [Example C64, 3-methyl-N-[(pyrimidin-4-yl)methyl]-8-[4-(trifluoromethyl)phenyl]-8H-[1,2]thiazolo[3,4-b]indole-5-carboxamide] | 
8 | 1 to 100 | 10 to 100 |  | C[C@@H](NC(=O)c1ccc2c(c1)c1nn(C)nc1n2-c1ccc(C(F)(F)F)cc1)c1cccc(N)n1 [Example C181, N-[(1R)-1-(6-aminopyridin-2-yl)ethyl]-2-methyl-4-[4-(trifluoromethyl)phenyl]-2H,4H-[1,2,3]triazolo[4,5-b]indole-7-carboxamide] | IC50 [2, 9]: > 3000 nM
9 |  |  | > 30000 | Cn1cc2c3cc(C(=O)O)cnc3n(-c3ccc(C(F)(F)F)cc3)c2n1 [Example C110, 4-methyl-7-[4-(trifluoromethyl)phenyl]-4,5,7,9-tetraazatri-cyclo[6.4.0.0^2,6]dodeca-1(8),2,5,9,11-pentaene-11-carboxylic acid] | IC50 [1, 8]: 10 to 100 nM; IC50 ([3]; 96 h, class symbols): 100 to 1000 nM
10 | 1 to 100 | 10 to 100 | > 30000 | Cn1cnc2c1c1cc(C(=O)N[C@](C)(CO)c3ccccn3)ccc1n2-c1ccc(C(F)(F)F)cc1 [Example C2, N-[(2S)-1-hydroxy-2-(pyridin-2-yl)propan-2-yl]-1-methyl-4-[4-(trifluoromethyl)phenyl]-1H,4H-imidazo [4,5-b]indole-7-carboxamide] | 
11 | 1 to 100 | 10 to 100 | > 30000 | CN(c1ccc2c(c1)c1cn(C)nc1n2-c1ccc(C(F)(F)F)cc1)S(C)(=O)=O [Example C20, N-methyl-N-{2-methyl-8-[4-(trifluoromethyl)phenyl]-2H,8H-pyrazolo[3,4-b]indol-5-yl}methanesulfonamide] | 
12 | 100 to 1000 |  |  | Cn1cc2c3cc(C(=O)N=[S@](=O)(CCCO)Cc4cccnc4)ccc3n(-c3ccc(C(F)(F)F)cc3)c2n1 (single isomer, unassigned) [Example C201] | IC50 [1, 4]: > 300 nM; IC50 ([2]; class symbols): 1000 to 10000 nM
13 | 1 to 100 | 10 to 100 |  | Cn1cc2c3cc(C(=O)N[C@@H](CO)c4ccccn4)ccc3n(-c3ccc(C(F)F)cc3)c2n1 [Example C248, 8-[4-(difluoromethyl)phenyl]-N-[(1R)-2-hydroxy-1-(pyridin-2-yl)ethyl]-2-methyl-2H,8H-pyrazolo[3,4-b]indole-5-carboxamide] | IC50 [2, 9]: > 30000 nM
14 | 1 to 100 | 10 to 100 |  | Cn1nc2c3cc(C(=O)N=S(C)(=O)CCO)ccc3n(-c3ccc(C(F)(F)F)cc3)c2n1 (single isomer, unassigned) [Example C192] | IC50 [2, 9]: > 30000 nM

The remaining lines, values behind:

Row | SMILES | IC50 [3, 5] [nM] | IC50 [1, 6] [nM] | IC50 [2, 7] [nM] | further results
15 | Cn1cc2c3cc(C(=O)N=[S@](=O)(CCO)Cc4ccncc4)ccc3n(-c3ccc(C(F)(F)F)cc3)c2n1 (single isomer, unassigned) [Example C253] | 100 to 1000 |  |  | IC50 [1, 4]: > 6500 nM; IC50 ([2]; class symbols): 1000 to 10000 nM
16 | Cn1cc2c3cc(C(=O)N=[S@@](=O)(CCO)Cc4ccncc4)ccc3n(-c3ccc(C(F)(F)F)cc3)c2n1 (single isomer, unassigned) [Example C254] | 1 to 100 |  |  | IC50 [1, 4]: > 300 nM; IC50 ([2]; class symbols): 1000 to 10000 nM
17 | Cc1c2c3cc(C(=O)NCc4ccncc4)ccc3n(-c3ccc(C(F)(F)F)cc3)c2nn1C [Example C98, 2,3-dimethyl-N-[(pyridin-4-yl)methyl]-8-[4-(trifluoromethyl)phenyl]-2H,8H-pyrazolo[3,4-b]indole-5-carboxamide] | 1 to 100 | 10 to 100 | > 3200 | 
18 | Cc1snc2c1c1cc(C(=O)N=S(C)(=O)CCCO)ccc1n2-c1ccc(C(F)(F)F)cc1 (single isomer, unassigned) [Example C104] | 1 to 100 |  | > 3200 | IC50 [1, 8]: 10 to 100 nM
19 | O=C(O)c1ccc2c(c1)c1cn(C3CCCCO3)nc1n2-c1ccc(C(F)(F)F)cc1 (stereo not drawn) [Example C10, 2-(oxan-2-yl)-8-[4-(trifluoromethyl)phenyl]-2H,8H-pyrazolo[3,4-b]indole-5-carboxylic acid] | 100 to 1000 | 10 to 100 | > 30000 | 
20 | Cn1nnc2c3cc(C(=O)N=[S@](=O)(CCO)Cc4cccnc4)ccc3n(-c3ccc(C(F)(F)F)cc3)c21 (single isomer, unassigned) [Example C251] | 100 to 1000 | 10 to 100 |  | IC50 [2, 9]: > 3000 nM
21 | Cn1cc2c3cc(S(=O)(=O)NCCCO)ccc3n(-c3ccc(C(F)(F)F)cc3)c2n1 [Example C85, N-(3-hydroxypropyl)-2-methyl-8-[4-(trifluoromethyl)phenyl]-2H,8H-pyrazolo[3,4-b]indole-5-sulfonamide] | 1000 to 10000 |  | > 30000 | IC50 ([1]; Homo sapiens, SK-HEP1, SK-HEP-1 reporter assay, n.d. = value not detectable below threshold given in parentheses, ND = not determinable within the entire range): > 30000 nM
22 | Cn1nc2c3cc(C(=O)N=S(C)(=O)CCCO)ccc3n(-c3ccc(C(F)(F)F)cc3)c2n1 (stereo not drawn) [Example C25, N-[(3-hydroxypropyl)(methyl)oxo -¿6-sulfanylidene]-2-methyl-4-[4-(trifluoromethyl)phenyl]-2H,4H-[1,2,3]triazolo[4,5-b]indole-7-carboxamide] | 1 to 100 | 10 to 100 | > 30000 | 
23 | Cn1cc2c3cc(C(=O)O)ccc3n(C34CC(C(F)(F)F)(C3)C4)c2n1 [Example C28, 2-methyl-8-[3-(trifluoromethyl)-bicyclo[1.1.1]pentan-1-yl]-2H,8H-pyrazolo[3,4-b]indole-5-carboxylic acid] |  | 10 to 100 | > 30000 | IC50 ([3]; Homo sapiens, NCI-H226, 96 h, n.d. = value not detectable below threshold given in parentheses): > 10000 nM
24 | Cn1cc2c3cc(N=S(C)(C)=O)ccc3n(-c3ccc(C(F)(F)F)cc3)c2n1 [Example C106, dimethyl({2-methyl-8-[4-(trifluoromethyl)phenyl]-2H,8H-pyrazolo[3,4-b]indol-5-yl}imino)-\6-sulfanone] | 100 to 1000 | 10 to 100 | > 30000 | 
25 | Cc1snc2c1c1cc(C(=O)NC3CC3)ccc1n2-c1ccc(C(F)(F)F)cc1 [Example C41, N-cyclopropyl-3-methyl-8-[4-(trifluoromethyl)phenyl]-8H-[1,2]thiazolo [3,4-b]indole-5-carboxamide] | 1 to 100 | 10 to 100 | > 30000 | 
26 | Cc1ccc(-n2c3ccc(C(=O)N[C@H](C)CO)cc3c3cn(C)nc32)cc1 [Example C131, N-[(2R)-1-hydroxypropan-2-yl]-2-methyl-8-(4-methylphenyl)-2H,8H-pyrazolo[3,4-b]indole-5-carboxamide] | 100 to 1000 | 100 to 10000 | > 30000 | 
27 | Cn1cnc2c1c1cc(C(=O)N[C@@](C)(CO)c3ccccn3)ccc1n2-c1ccc(C(F)(F)F)cc1 [Example C12, N-[(2R)-1-hydroxy-2-(pyridin-2-yl)propan-2-yl]-1-methyl-4-[4-(trifluoromethyl)phenyl]-1H,4H-imidazo [4,5-b]indole-7-carboxamide] | 1 to 100 | 1 to 10 | > 3000 | 
28 | CNC(=O)c1ccc2c(c1)c1cn(C)nc1n2C12CC(C(F)(F)F)(C1)C2 [Example C125, N,2-dimethyl-8-[3-(trifluoromethyl)bicyclo[1.1.1]pentan-1-yl]-2H,8H-pyrazolo[3,4-b]indole-5-carboxamide] | 100 to 1000 | 10 to 100 | > 3000 | 
